Measured values: patent US20220117948A1, “TRITERPENOID ANTIFUNGALS FOR THE TREATMENT OF FUNGAL OSTEO-ARTICULAR INFECTIONS” (Scynexis, Inc., priority 2019, published 2022)
Blank lines part the entries; values can stand above or below the molecule they belong to. Starred links: 1 amine or outer side, 2 acyl side, 3 side chain; linkers in the order of their positions; H or OH if unused. Positions of bridges follow the written chain, without caps; N, C: chain ends. Non-standard residues stand in square brackets, D forms with d. Residues, ends and D or L forms follow the SMILES beside them. *: point of attachment. pTerphenylCO(4''-OnC5H11) = CCCCCOc1ccc(-c2ccc(-c3ccc(C(=O)*)cc3)cc2)cc1; Orn(4R-OH,5R-OH) = O=C([C@H](C[C@@H](O)[C@@H](O)N[*:3])N[*:1])[*:2]; hTyr(3S-OH,4S-OH) = N[C@H](C(=O)O)[C@H](O)[C@@H](O)c1ccc(O)cc1; Pro(3S-OH,4S-Me) = C[C@H]1CN[C@H](C(=O)O)[C@H]1O; Hyp = O=C(O)[C@@H]1C[C@@H](O)CN1

Assays:
[1] = system: Candida tropicalis spondylodiscitis; type: in vivo, human; settings: Example B: person, Candida tropicalis spondylodiscitis L5/S1; oral 750 mg BID 2 days then 750 mg QD (citrate salt tablets); 88 days of treatment
Excerpt: (§1) This example presents treatment courses of two patients with Candida spondylodiscitis who were enrolled in an “Open-Label Study to Evaluate Efficacy and Safety of SCY-078 in Patients With Refractory or Intolerant Fungal Diseases (FURI)” (clinicaltrials.gov identifier NCT03059992).
(§2) Objective: The objective of the study is to evaluate the efficacy of orally administered SCY-078 for the treatment of fungal infections that are refractory to or intolerant of approved antifungal agents.
(§3) Study design: This is a multicenter, open-label, non-comparator, single-arm study to evaluate the efficacy, safety, and pharmacokinetics (PK) of SCY-078 (administered as the citrate salt) in male and female subjects≥18 years of age with documented invasive and/or severe candidiasis that has been refractory to or intolerant of, or has shown toxicities associated with standard of care (SoC) antifungal treatment. Subjects must have a documented eligible acute or chronic invasive candidiasis (including candidemia) and meet all study criteria to be considered for enrollment. […]
(§4) Efficacy: Efficacy will be assessed primarily in terms of global success (both clinical success and mycological success). Complete global response, partial global response, clinical success, and mycological success will also be assessed. […]

[2] = system: sessile (biofilm) forms of Candida and non-Candida isolates; settings: XTT reduction assay, confirmed by scanning electron microscopy; cited from earlier work
[3] = system: Candida albicans spondylodiscitis; type: in vivo, human; settings: Example A: person, Candida albicans spondylodiscitis L4/L5; oral 750 mg BID 2 days then 750 mg QD (citrate salt tablets); 277 days of treatment
Excerpt: as §1, §2, §3, §4

[4] = system: Candida and non-Candida isolates causing fungaemia; settings: 178 Candida and non-Candida isolates causing fungaemia; EUCAST E Def 7.3 and CLSI M27-A3; cited from earlier work
[5] = parameters: species or system male pigmented Long-Evans rats; settings: rat, in vivo
Protocol: As a first step of the feasibility evaluation, the tissue distribution of SCY-078 was evaluated in an animal model. […] WH rats were used for mass balance and pharmacokinetic (PK) determinations after i.v. and oral doses, and both WH and LE rats were used for Quantitative whole-body autoradiography (QWBA) determinations. Dose levels were selected to reflect the clinically relevant 11.2-μg·h/ml target exposure for Candida spp. infections. The concentration, homogeneity, radio purity, and stability of dosing formulations were confirmed to be acceptable before dosing. For QWBA whole-body sections (˜40 μm thick via Leica CM3600 cryomicrotome; Nussloch, Germany), where all major tissues, organs, and biological fluids were represented, sections were exposed for phosphor imaging (Fuji Biomedical, Stamford, Conn.) together with calibration standards. […] Quantification was performed by image densitometry with MCID image analysis software (v. 7.0; Interfocus Imaging Ltd., Linton, Cambridge, UK), and a standard curve was constructed from the integrated response (molecular dynamics counts [MDC]/mm2) and the nominal concentrations of the 14C-calibration standards. The concentrations of radioactivity were expressed as [14C]SCY-078 μg equiv/g tissue. The lower limit of quantitation was 0.024 and 0.049 μg equiv/g of tissue for i.v. and oral doses of SCY-078, respectively. […]

[6] = cited from earlier work
[7] = mice; cited from earlier work

- exposure observed in bone compared with plasma [5]: exceeded the exposure measured in plasma
- exposure observed in bone marrow compared with plasma [5]: exceeded the exposure measured in plasma
SMILES: CC(C)[C@@H](C)[C@@]1(C)CC[C@]2(C)[C@H]3CC[C@@H]4[C@@]5(COC[C@@]4(C)[C@@H](OC[C@](C)(N)C(C)(C)C)[C@H](n4ncnc4-c4ccncc4)C5)C3=CC[C@@]2(C)[C@@H]1C(=O)O [SCY-078, (1S,4aR,6aS,7R,8R,10aR,10bR,12aR,14R,15R)-15-[[(2R)-2-amino-2,3,3-trimethylbutyl]oxy]-8-[(1R)-1,2-dimethylpropyl]-14-[5-(4-pyridinyl)-1H-1,2,4-triazol-1-yl]-1,6,6a,7,8,9,10,10a,10b,11,12,12a-dodecahydro-1,6a,8,10a-tetramethyl-4H-1,4a-propano-2H-phenanthro[1,2-c]pyran-7-carboxylic acid]
- patient's response to date [1]: resolved
- antibiofilm activity [2]: activity against the biofilms
- patient's response to date [3]: improved
- in vitro activity against planktonic form [4]: potent in vitro activity

SMILES: CCCCCOc1ccc(-c2ccc(-c3ccc(C(=O)N[C@H]4C[C@@H](O)[C@@H](O)NC(=O)[C@@H]5[C@@H](O)[C@@H](C)CN5C(=O)[C@H]([C@@H](C)O)NC(=O)[C@H]([C@H](O)[C@@H](O)c5ccc(O)cc5)NC(=O)[C@@H]5C[C@@H](O)CN5C(=O)[C@H]([C@@H](C)O)NC4=O)cc3)cc2)cc1 [anidulafungin] ({pTerphenylCO(4''-OnC5H11)}-[Orn(4R-OH,5R-OH)]T[Hyp][hTyr(3S-OH,4S-OH)]T[Pro(3S-OH,4S-Me)]; lactam 1-C)
- bone/plasma concentration ratio ([6]; neonatal rats after a single dose): 0.21
- skeletal muscle concentrations compared with plasma ([6]; rats): comparable to those in plasma

SMILES: CC[C@H](C)C[C@H](C)CCCCCCCCC(=O)N[C@H]1C[C@@H](O)[C@@H](NCCN)NC(=O)[C@@H]2[C@@H](O)CCN2C(=O)[C@H]([C@H](O)CCN)NC(=O)[C@H]([C@H](O)[C@@H](O)c2ccc(O)cc2)NC(=O)[C@@H]2C[C@@H](O)CN2C(=O)[C@H]([C@@H](C)O)NC1=O [caspofungin]
- skeletal muscle concentrations as % of those in plasma [7]: less than 50%
